Common to all, as to assay: NCI-60 cell line screen, 48 h
Experiment [1] relates to 786-0 renal.
Experiment [2] deals with COLO 205 colon.
The test system of experiment [3] is HOP-62 NSCLC.
The subject of experiment [4] is MDA-MB-231 breast.
Experiment [5] relates to MOLT-4 leukemia.
Experiment [6] has as its system NCI-H226 lung.
Experiment [7] concerns NCI-H460 lung.
Experiment [8] has as its system SK-OV-3 ovarian.
For experiment [9], the system named is UACC-257 melanoma.
Experiment [10] deals with UACC-62 melanoma.

“And” between values parts separate entries of the source, which are not always exact repeats. Equal values may be shown once.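 Method: 48-hour compound exposure of cells in 96-well plates, five concentrations, linear interpolation of endpoints. GI50: concentration for 50% inhibition of growth. The concentration for full growth arrest is given as TGI.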

For the compound `O=c1oc(Cl)c(Cl)c2ccccc12`, the GI50 in experiment [1] is 19.2 µM; in [2], 22.8 µM; in experiment [3], 25.9 µM; in [4], 24.8 µM; in experiment [5], 9.19 µM; in [6], 22.2 µM. Besides, the GI50 in [7] is 55.5 µM; in experiment [8], 59.8 µM; in experiment [9], 93.8 µM; in experiment [10], 32.9 µM. The TGI in [1] stood at 40.4 µM; in experiment [2], 63.7 µM; in [3], 48.9 µM; in [4] it was 68.4 µM; in experiment [5], 78.2 µM; in experiment [6] it was 42.3 µM. In addition, the TGI in experiment [7], in [8], in experiment [9] and in [10] was > 100 µM throughout.
With `COc1ccc2c(c1)nnn1c3ncccc3c(N=O)c21`, the GI50 was 0.334 µM and 2.38 µM in experiment [1]; 0.681 µM and 1.22 µM in experiment [2]; 7.51 µM in experiment [3]; 1.26 µM and 1.88 µM in experiment [4]; 0.0094 µM and 0.0123 µM in [5]; 4.14 µM and 11.6 µM in experiment [6]. In addition, the GI50 in experiment [7] is 1.67 µM and 2.19 µM; in [8] it was 1.68 µM and 2.94 µM; in experiment [9], 8.21 µM and 2.62 µM; in experiment [10], 0.853 µM and 2.56 µM. The TGI in [2] is 2.74 µM; in [3] it was 21.5 µM; in [4], 12.7 µM and 6.41 µM; in [6], 13.1 µM and 47.7 µM; in experiment [7], 8.12 µM and 7.8 µM; in experiment [8], 11.8 µM and 19.6 µM. The TGI in [9] is 30.8 µM and 13.6 µM; in experiment [10], 7.81 µM and 13.9 µM.
Consider `COC(=O)c1ccccc1OCc1cc(=O)oc2ccc(C)cc12`, for which the TGI in [1] is > 100 µM; in [2], > 100 µM; in experiment [3], > 57.5 µM; in experiment [4], > 100 µM; in experiment [5], > 100 µM; in experiment [6], > 100 µM. In addition, the TGI is > 100 µM in experiment [7], > 100 µM in experiment [8], > 100 µM in experiment [9] and > 66.6 µM in experiment [10].

The record behind these values is PubChem BioAssay (NCI).
